# US11427615B2, “Peptide compound and application thereof, and composition containing peptide compound” (XDCEXPLORER (SHANGHAI) CO., LTD., priority 2017, dated 2022)
# Starred links: 1 amine or outer side, 2 acyl side, 3 side chain; linkers in the order of their positions; H or OH if unused. Positions of bridges follow the written chain, without caps; N, C: chain ends. Non-standard residues stand in square brackets, D forms with d. Residues, ends and D or L forms follow the SMILES beside them. cPrCO(1-aminomethyl) = O=C(C1(CN[*:1])CC1)[*:2]; Phe(4-tBu) = CC(C)(C)c1ccc(C[C@H](N)C(=O)O)cc1; dPhe(2,4-Cl2) = N[C@H](Cc1ccc(Cl)cc1Cl)C(=O)O; Phe(4-F) = N[C@@H](Cc1ccc(F)cc1)C(=O)O; Pro(4,4-F2) = O=C(O)[C@@H]1CC(F)(F)CN1; Pro(4R-NH2) = N[C@H]1CN[C@H](C(=O)O)C1; dAla(2-furyl) = N[C@H](Cc1ccco1)C(=O)O; dPhe(4-F) = N[C@H](Cc1ccc(F)cc1)C(=O)O; azaPhe = O=C(N(Cc1ccccc1)N[*:1])[*:2]; Arg(Me) = CNC(=N)NCCC[C@H](N)C(=O)O; Hyp = O=C(O)[C@@H]1C[C@@H](O)CN1; 2Thi = N[C@@H](Cc1cccs1)C(=O)O; Gly(cPr) = N[C@H](C(=O)O)C1CC1; Cba = N[C@@H](CC1CCC1)C(=O)O; S5 = C=CCCC[C@](C)(N)C(=O)O; Pip = O=C(O)[C@@H]1CCCCN1; dPip = O=C(O)[C@H]1CCCCN1; Ac6c = NC1(C(=O)O)CCCCC1; Ac5c = NC1(C(=O)O)CCCC1; Aze = O=C(O)[C@@H]1CCN1; Thp = NC1(C(=O)O)CCOCC1; azaGly = NNC(=O)O
# Biological target: T1, human kiss1 receptor (GPR54) (Homo sapiens, UniProt Q969F8)
# T1 construct: host or cells: NFAT-bla CHO-K1 cells (Chinese hamster ovary), purchased recombinant cell line
# T1 sequence (Q969F8 whole entry): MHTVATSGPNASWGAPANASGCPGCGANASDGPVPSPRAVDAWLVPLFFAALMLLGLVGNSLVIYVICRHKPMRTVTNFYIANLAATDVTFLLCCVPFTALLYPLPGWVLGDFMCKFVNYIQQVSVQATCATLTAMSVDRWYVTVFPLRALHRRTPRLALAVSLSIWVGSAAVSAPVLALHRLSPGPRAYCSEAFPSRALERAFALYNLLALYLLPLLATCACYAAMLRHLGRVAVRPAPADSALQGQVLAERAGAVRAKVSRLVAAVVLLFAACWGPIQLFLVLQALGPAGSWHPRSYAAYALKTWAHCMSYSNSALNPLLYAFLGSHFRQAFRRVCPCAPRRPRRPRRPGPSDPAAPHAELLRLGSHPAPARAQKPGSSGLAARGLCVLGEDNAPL
# Assay: Kiss1 receptor (GPR54) binding activity of agonists, FRET detection in NFAT-bla CHO-K1 cells
# Type: cell-based
# Details: GPR54; measured according to the method of effect Embodiment 1; preliminary data; read-out: Preliminary measurement data (GPR54) EC50
# Method: Effect Embodiment 1 Determination of Kiss1 Receptor (GPR54) Binding Activity of Kiss1 Receptor (GPR54) Agonist
# The binding activity test of each compound from the above the embodiments with kiss1 receptor (GPR54) was performed by fluorescence energy resonance transfer (FRET) detection technology to detect EC50 values of polypeptides and peptide analogs. The cells used in this experiment were NFAT-bla CHO-K1 cells (k1720, invitrogen, thermosher) that express human kiss1 receptor (GPR54). The specific operations were as follows:
# Day 1: Seeding Cells in Plate
# 1. Microscope (CKX41, OLYMPUS), object lens×4 times, ocular lens×10 times. The cells were ensured in a good condition.
# 2. Digesting the cells, adding 3 ml of 0.05% pancreatin into a culture dish; cells were placed in a 37° C., 5% CO2 incubator for 2 minutes (Thermo Fisher). After the cells became round under the microscope, 7 ml of culture medium was added. The formula of culture medium was as follows: DMEM 90%, dialzedfbS10, NEAA 0.1 mM, HEPES 25 mM, Penicillin 100 U/ml, Streptomycin 100 μm/ml, pH7.3. After blowing and stirring, it was transferred to 15 mL centrifuge tube (430790, Corning). Centrifuge at 1000 rpm for 5 min (5810R, Eppendorf) and the supernatant was discard.
# 3. Adding 7 mL of culture medium (DMEM+0.1% BSA), it was pipetting into single cell suspension, after counting with Bio-RAD counter, the cell density was adjusted to 312,500 cells/ml.
# 4. Cells were inoculated into 384 well plates at 32 μL per well, and the cell number was controlled at 10000 cells/well. 32 μl of culture medium was added into the blank control.
# Day 2: Dosing and Data Analysis
# 1) The compound to be tested was prepared into 50 mM working solution with DMSO.
# 2) 40 μl of the working solution of the compound to be tested was added into column 2 of row A-H of U-shaped 96-well plate (3797, comings), and 60 μl of DMSO was added into column 3-11. 20 μl of compound solution was sucked from the second column to the third column with a multichannel pipette blowing and stirring evenly; 20 μl of compound solution was absorbed from the third column with a multichannel pipette, then added into the fourth column, blowed and stirred to mix well; the compound was serially diluted 4-fold to a total of 10 concentrations. Column 1 and column 12 of 96-well plates were supplemented with 40 μl DMSO.
# 2. Intermediate Plate Configuration
# 1) AU-shaped 96-well plate was used, 199 μL of culture medium (DMEM+0.1% BSA) was added to each well, 1 μL of diluted compound (or DMSO) was sucked from 1000× compound plate and added into the 96-well plate at the corresponding position, blowed and stirred to mix well.
# 2) Homemade positive compounds and compounds to be tested were added. The cell culture plate was took out from the incubator and cells state was observed under microscope. Diluted compound in the intermediate plate or DMSO was added into the cell, 8 μl per well.
# 3) Cells were cultured in 37° C. and 5% CO2 for 4 hours.
# 3. The Substrate was Added to Detect the Binding of the Drug to the Receptor
# 1) 1 μmol/L CCF-4AM solution and buffer solution B, C, D were equilibrated to room temperature. LiveBLAZER™-FRET B/G Loading Kit (K1095, thermo Fisher) containing CCF-4AM and solution B, solution C, solution D were also available from Invitrogen (K1157, thermo Fisher).
# 2) 6× loading solution was prepared: 6 μl of CCF-4AM dissolved solution A, 60 μl of solution b, 904 μl of solution c, and 30 μl of solution D were pipetted into EP tube, blowed and stirred to mix well.
# 3) 8 μl of the above-mentioned liquid was sucked with a multichannel pipette, added into a 96-well plate, and incubated for 2 hours at room temperature.
# 4) The PerkinElmer detector was used to detect the luminous signals of each hole. FI mode, λex=409 nm, λem1=460 nm, λem2=530 nm.
# 4. Data Processing Using Graphpad Prism 5 (GraphPad Software. Inc)
# Effective rate %=(Signal−Min)/(Max−Min)×100%.
row,EC50,Compound
1,545 nM,"CC(=O)N[C@@H](Cc1ccc(O)cc1)C(=O)N[C@@H](CC(N)=O)C(=O)N[C@@H](Cc1c[nH]c2ccccc12)C(=O)N[C@@]1(C)CCCC=CCCC[C@@](C)(C(=O)N[C@@H](CCCNC(=N)N)C(=O)N[C@@H](Cc2ccccc2)C(N)=O)NC(=O)CNC(=O)[C@H](Cc2ccccc2)NC(=O)[C@H](CO)NC1=O [YA-146, Ac-Tyr-Asn-Trp-X-Ser-Phe-Gly-X-Arg-Phe-NH2 (stapled)] (Ac-YNW[S5]SFG[S5]RF-NH2; staple 4-8)"
2,0.86 nM,CNC(=N)NCCC[C@H](NC(=O)[C@H](CC(C)C)NC(=O)NNC(=O)[C@H](Cc1ccccc1)NC(=O)[C@@H](Cc1ccco1)NC(=O)[C@H](CC(N)=O)NC(=O)[C@@H]1C[C@@H](O)CN1C(=O)[C@@H](Cc1ccc(O)cc1)NC(C)=O)C(=O)N[C@@H](Cc1c[nH]c2ccccc12)C(N)=O [YA-166] (Ac-[dY][Hyp]N[dAla(2-furyl)]F[azaGly]L[Arg(Me)]W-NH2)
3,0.46 nM,"CNC(=N)NCCC[C@H](NC(=O)[C@H](CC(C)C)NC(=O)C1(NC(=O)[C@H](Cc2ccccc2)NC(=O)[C@@H](NC(=O)[C@H](CC(N)=O)NC(=O)[C@@H]2C[C@@H](O)CN2C(=O)[C@@H](Cc2ccc(O)cc2)NC(C)=O)[C@@H](C)O)CCCC1)C(=O)N[C@@H](Cc1c[nH]c2ccccc12)C(N)=O [YA-282, Ac-(D-Tyr)-Hyp-Asn-Thr-Phe-cycloLeu-Leu-Arg(Me)-Trp-NH2] (Ac-[dY][Hyp]NTF[Ac5c]L[Arg(Me)]W-NH2)"
4,0.008 nM,"CNC(=N)NCCC[C@H](NC(=O)[C@H](CC(C)C)NC(=O)NNC(=O)[C@H](Cc1ccccc1)NC(=O)[C@@H](NC(=O)[C@H](CC(N)=O)NC(=O)[C@@H]1C[C@@H](N)CN1C(=O)[C@@H](Cc1ccc(O)cc1)NC(C)=O)[C@@H](C)O)C(=O)N[C@@H](Cc1c[nH]c2ccccc12)C(N)=O [YA-83, Ac-D-Tyr-Pro(4-NH2)-Asn-Thr-Phe-azaGly-Leu-Arg(Me)-Trp-NH2] (Ac-[dY][Pro(4R-NH2)]NTF[azaGly]L[Arg(Me)]W-NH2)"
5,18.7 nM,"CNC(=N)NCCC[C@H](NC(=O)[C@H](CC(C)C)NC(=O)NNC(=O)[C@H](Cc1ccccc1)NC(=O)[C@@H](NC(=O)[C@H](CC(N)=O)NC(=O)[C@@H]1C[C@@H](O)CN1C(=O)[C@H](Cc1ccc(C(C)(C)C)cc1)NC(C)=O)[C@@H](C)O)C(=O)N[C@@H](Cc1c[nH]c2ccccc12)C(N)=O [YA-75, Ac-Phe(4-tBu)-Hyp-Asn-Thr-Phe-azaGly-Leu-Arg(Me)-Trp-NH2] (Ac-[Phe(4-tBu)][Hyp]NTF[azaGly]L[Arg(Me)]W-NH2)"
6,1.36 nM,"CNC(=N)NCCC[C@H](NC(=O)[C@H](CC(C)C)NC(=O)[C@@H]1CCN1C(=O)[C@H](Cc1ccccc1)NC(=O)[C@@H](NC(=O)[C@H](CC(N)=O)NC(=O)[C@@H]1CC(F)(F)CN1C(=O)[C@@H](Cc1ccc(O)cc1)NC(C)=O)[C@@H](C)O)C(=O)N[C@@H](Cc1c[nH]c2ccccc12)C(N)=O [YA-193, Ac-(D-Tyr)-Pro(diF)-Asn-Thr-Phe-Aze-Leu-Arg(Me)-Trp-NH2] (Ac-[dY][Pro(4,4-F2)]NTF[Aze]L[Arg(Me)]W-NH2)"
7,20.3 nM,"CNC(=N)NCCC[C@H](NC(=O)[C@H](CC(C)C)NC(=O)C1(NC(=O)[C@H](Cc2ccccc2)NC(=O)[C@@H](NC(=O)[C@H](CC(N)=O)NC(=O)[C@H]2CCCCN2C(=O)[C@@H](Cc2ccc(O)cc2)NC(C)=O)[C@@H](C)O)CCCCC1)C(=O)N[C@@H](Cc1c[nH]c2ccccc12)C(N)=O [YA-229, Ac-(D-Tyr)-(R-Pip)-Asn-Thr-Phe-A6c-Leu-Arg(Me)-Trp-NH2] (Ac-[dY][dPip]NTF[Ac6c]L[Arg(Me)]W-NH2)"
8,0.26 nM,"CNC(=N)NCCC[C@H](NC(=O)[C@H](CC(C)C)NC(=O)C1(NC(=O)[C@H](Cc2ccccc2)NC(=O)[C@@H](NC(=O)[C@H](CC(N)=O)NC(=O)[C@@H]2C[C@@H](O)CN2C(=O)[C@@H](Cc2ccc(O)cc2)NC(C)=O)[C@@H](C)O)CCOCC1)C(=O)N[C@@H](Cc1c[nH]c2ccccc12)C(N)=O [YA-354, Ac-(D-Tyr)-Hyp-Asn-Thr-Phe-morpholino cyclic amino acid-Leu-Arg(Me)-Trp-NH2] (Ac-[dY][Hyp]NTF[Thp]L[Arg(Me)]W-NH2)"
9,0.058 nM,"CNC(=N)NCCC[C@H](NC(=O)[C@H](CC(C)C)NC(=O)NNC(=O)[C@H](Cc1ccccc1)NC(=O)[C@@H]1CCN1C(=O)[C@H](CC(N)=O)NC(=O)[C@@H]1C[C@@H](O)CN1C(=O)[C@@H](Cc1ccc(O)cc1)NC(C)=O)C(=O)N[C@@H](Cc1c[nH]c2ccccc12)C(N)=O [YA-388, Ac-(D-Tyr)-Hyp-Asn-Aze-Phe-azaGly-Leu-Arg(Me)-Trp-NH2] (Ac-[dY][Hyp]N[Aze]F[azaGly]L[Arg(Me)]W-NH2)"
10,6.53 nM,"CNC(=N)NCCC[C@H](NC(=O)[C@H](CC(C)C)NC(=O)NNC(=O)[C@H](Cc1ccccc1)NC(=O)[C@@H](NC(=O)[C@H](CC(N)=O)NC(=O)[C@@H]1C[C@@H](O)CN1C(=O)[C@@H](Cc1ccc(O)cc1)NC(C)=O)[C@@H](C)O)C(=O)N[C@H](Cc1ccco1)C(N)=O [YA-169, Ac-(D-Tyr)-Hyp-Asn-Thr-Phe-azaGly-Leu-Arg(Me)-[3-(2-furyl)-D-Ala]-NH2] (Ac-[dY][Hyp]NTF[azaGly]L[Arg(Me)][dAla(2-furyl)]-NH2)"
11,0.65 nM,"CNC(=N)NCCC[C@H](NC(=O)[C@H](CC(C)C)NC(=O)C1(NC(=O)[C@H](Cc2ccccc2)NC(=O)[C@@H](NC(=O)[C@H](CC(N)=O)NC(=O)[C@@H]2CCCCN2C(=O)[C@@H](Cc2ccc(O)cc2)NC(C)=O)[C@@H](C)O)CCCCC1)C(=O)N[C@@H](Cc1c[nH]c2ccccc12)C(N)=O [YA-228, Ac-D-Tyr-(S-Pip)-Asn-Thr-Phe-A6c-Leu-Arg(Me)-Trp-NH2] (Ac-[dY][Pip]NTF[Ac6c]L[Arg(Me)]W-NH2)"
12,1.32 nM,"CNC(=N)NCCC[C@H](NC(=O)[C@H](CC(C)C)NC(=O)NNC(=O)[C@H](Cc1ccccc1)NC(=O)[C@@H](NC(=O)[C@H](CC(N)=O)NC(=O)[C@@H]1C[C@@H](O)CN1C(=O)[C@H](Cc1ccc(OC)cc1)NC(C)=O)[C@@H](C)O)C(=O)N[C@@H](Cc1c[nH]c2ccccc12)C(N)=O [YA-73, Ac-Tyr(Me)-Hyp-Asn-Thr-Phe-azaGly-Leu-Arg(Me)-Trp-NH2] (Ac-Y(Me)[Hyp]NTF[azaGly]L[Arg(Me)]W-NH2)"
13,0.57 nM,"CNC(=N)NCCC[C@H](NC(=O)[C@H](CC(C)C)NC(=O)C1(NC(=O)[C@H](Cc2ccccc2)NC(=O)[C@@H](NC(=O)[C@H](CC(N)=O)NC(=O)[C@@H]2C[C@@H](O)CN2C(=O)[C@@H](Cc2ccco2)NC(C)=O)[C@@H](C)O)CCCCC1)C(=O)N[C@@H](Cc1c[nH]c2ccccc12)C(N)=O [YA-197, Ac-(D-2Fua)-Hyp-Asn-Thr-Phe-A6c-Leu-Arg(Me)-Trp-NH2] (Ac-[dAla(2-furyl)][Hyp]NTF[Ac6c]L[Arg(Me)]W-NH2)"
14,0.034 nM,"CNC(=N)NCCC[C@H](NC(=O)[C@H](CC(C)C)NC(=O)NNC(=O)[C@H](Cc1ccccc1)NC(=O)[C@@H](NC(=O)[C@H](CC(N)=O)NC(=O)C1(CNC(=O)[C@@H](Cc2ccc(O)cc2)NC(C)=O)CC1)[C@@H](C)O)C(=O)N[C@@H](Cc1c[nH]c2ccccc12)C(N)=O [YA-145, Ac-D-Tyr-ACPA-Asn-Thr-Phe-azaGly-Leu-Arg(Me)-Trp-NH2] (Ac-[dY][cPrCO(1-aminomethyl)]NTF[azaGly]L[Arg(Me)]W-NH2)"
15,382 nM,"CNC(=N)NCCC[C@H](NC(=O)[C@H](CC(C)C)NC(=O)C1(NC(=O)[C@H](Cc2ccccc2)NC(=O)[C@@H](NC(=O)[C@H](CC(N)=O)NC(=O)[C@@H]2C[C@@H](O)CN2C(=O)[C@H](Cc2ccc(F)cc2)NC(C)=O)[C@@H](C)O)CCCCC1)C(=O)N[C@@H](Cc1c[nH]c2ccccc12)C(N)=O [YA-198, Ac-Phe(4-F)-Hyp-Asn-Thr-Phe-A6c-Leu-Arg(Me)-Trp-NH2] (Ac-[Phe(4-F)][Hyp]NTF[Ac6c]L[Arg(Me)]W-NH2)"
16,15.6 nM,"CNC(=N)NCCC[C@H](NC(=O)[C@H](CC(C)C)NC(=O)C1(NC(=O)[C@H](Cc2ccccc2)NC(=O)[C@@H](NC(=O)[C@H](CC(N)=O)NC(=O)[C@H](Cc2cccs2)NC(=O)[C@@H](Cc2ccc(F)cc2)NC(C)=O)[C@@H](C)O)CCCCC1)C(=O)N[C@@H](Cc1c[nH]c2ccccc12)C(N)=O [YA-199, Ac-[D-Phe(4-F)]-Thi-Asn-Thr-Phe-A6c-Leu-Arg(Me)-Trp-NH2] (Ac-[dPhe(4-F)][2Thi]NTF[Ac6c]L[Arg(Me)]W-NH2)"

# Same assay, conditions: Preliminary measurement data (GPR54) EC50, nM), GPR54; measured according to the method of effect Embodiment 1; preliminary data
row,Compound,EC50
1,"CNC(=N)NCCC[C@H](NC(=O)[C@H](CC(C)C)NC(=O)CNC(=O)N(Cc1ccccc1)NC(=O)[C@@H](NC(=O)[C@H](CC(N)=O)NC(=O)[C@@H]1CCCCN1C(=O)[C@@H](Cc1ccc(Cl)cc1Cl)NC(C)=O)[C@@H](C)O)C(=O)N[C@@H](Cc1c[nH]c2ccccc12)C(N)=O [YA-241, Ac-[D-Phe(2,4-diCl)]—(S-Pip)-Asn-Thr-azaPhe-Gly-Leu-Arg(Me)-Trp-NH2] (Ac-[dPhe(2,4-Cl2)][Pip]NT[azaPhe]GL[Arg(Me)]W-NH2)",0.93 nM

# Same assay, conditions: human kiss1 receptor (GPR54), NFAT-bla CHO-K1 cells, FRET; preliminary data; method of effect Embodiment 1; read-out: Preliminary measurement data (GPR54) EC50
row,EC50,Compound
1,1.19 nM,"CNC(=N)NCCC[C@H](NC(=O)[C@H](CC(C)C)NC(=O)[C@@H](NC(=O)[C@H](Cc1ccccc1)NC(=O)[C@@H](NC(=O)[C@H](CC(N)=O)NC(=O)[C@@H]1C[C@@H](O)CN1C(=O)[C@@H](Cc1ccc(O)cc1)NC(C)=O)[C@@H](C)O)C1CC1)C(=O)N[C@@H](Cc1c[nH]c2ccccc12)C(N)=O [YA-396, Ac-(D-Tyr)-Hyp-Asn-Thr-Phe-Cpg-Leu-Leu-Arg(Me)-Trp-NH2] (Ac-[dY][Hyp]NTF[Gly(cPr)]L[Arg(Me)]W-NH2)"
2,1.7 nM,"CNC(=N)NCCC[C@H](NC(=O)[C@H](CC(C)C)NC(=O)[C@H](CC1CCC1)NC(=O)[C@H](Cc1ccccc1)NC(=O)[C@@H](NC(=O)[C@H](CC(N)=O)NC(=O)[C@@H]1C[C@@H](O)CN1C(=O)[C@@H](Cc1ccc(O)cc1)NC(C)=O)[C@@H](C)O)C(=O)N[C@@H](Cc1c[nH]c2ccccc12)C(N)=O [YA-284, Ac-(D-Tyr)-Hyp-Asn-Thr-Phe-Cba-Leu-Arg(Me)-Trp-NH2] (Ac-[dY][Hyp]NTF[Cba]L[Arg(Me)]W-NH2)"
